Measurements taken from ChEMBL document CHEMBL1201862, “PubChem BioAssay data set” (2004).
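Briefly, cells in 96-well plates were exposed to five compound concentrations for 48 h, and endpoints were estimated by linear interpolation. GI50 marks 50% less growth.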 The source made the active and inactive calls. Rule as the data show it: active = GI50 up to about 1.1 µM and inactive = higher.

How the values were obtained:
Test in all cases: NCI anticancer screen, dose series, 48 h
[1] = system: MOLT-4
[2] = system: NCI-H522
[3] = system: TK-10
[4] = system: UACC-257
[5] = system: HCT-15
[6] = system: EKVX
[7] = system: IGROV-1
[8] = system: RXF 393
[9] = system: KM12
[10] = system: T47D
[11] = system: OVCAR-4
[12] = system: OVCAR-3
[13] = system: SK-OV-3
[14] = system: A549
[15] = system: SF-295
[16] = system: CAKI-1
[17] = system: OVCAR-5
[18] = system: UO-31
[19] = system: RPMI-8226
[20] = system: BT-549
[21] = system: SNB-19
[22] = system: UACC-62
[23] = system: SF-539
[24] = system: HOP-62
[25] = system: CCRF-CEM
[26] = system: SK-MEL-2
[27] = system: MDA-MB-231
[28] = system: LOX IMVI
[29] = system: SW-620
[30] = system: PC-3
[31] = system: MCF7
[32] = system: SK-MEL-28
[33] = system: HCT-116
[34] = system: DU-145
[35] = system: SNB-75
[36] = system: Hs-578T
[37] = system: SK-MEL-5
[38] = system: U-251
[39] = system: OVCAR-8
[40] = system: MDA-N
[41] = system: MDA-MB-435
[42] = system: COLO 205
[43] = system: HOP-92
[44] = system: Malme-3M
[45] = system: SN12C
[46] = system: M14
[47] = system: K562
[48] = system: SF-268
[49] = system: NCI/ADR-RES
[50] = system: 786-0
[51] = system: ACHN
[52] = system: HCC 2998
[53] = system: HT-29
[54] = system: NCI-H23
[55] = system: NCI-H226
[56] = system: HL-60
[57] = system: SR
[58] = system: NCI-H460
[59] = system: A498

SMILES: CCOC(=O)C(NC(=O)c1ccccc1)(Nc1cc(C)on1)C(F)(F)F (stereo not drawn)
- GI50 [1]: > 100 µM (inactive)
- GI50 [2]: > 100 µM (inactive)
- GI50 [3]: > 100 µM (inactive)
- GI50 [4]: > 100 µM (inactive)
- GI50 [5]: > 100 µM
- GI50 [6]: > 100 µM (inactive)
- GI50 [7]: > 100 µM (inactive)
- GI50 [8]: > 100 µM (inactive)
- GI50 [9]: > 100 µM (inactive)
- GI50 [10]: > 100 µM (inactive)
- GI50 [11]: > 100 µM (inactive)
- GI50 [12]: > 100 µM (inactive)
- GI50 [13]: > 100 µM (inactive)
- GI50 [14]: > 100 µM (inactive)
- GI50 [15]: > 100 µM (inactive)
- GI50 [16]: > 100 µM (inactive)
- GI50 [17]: > 100 µM (inactive)
- GI50 [18]: > 100 µM (inactive)
- GI50 [19]: > 100 µM (inactive)
- GI50 [20]: > 100 µM (inactive)
- GI50 [21]: > 100 µM (inactive)
- GI50 [22]: > 100 µM (inactive)
- GI50 [23]: > 100 µM (inactive)
- GI50 [24]: > 100 µM (inactive)
- GI50 [25]: > 100 µM (inactive)
- GI50 [26]: > 100 µM (inactive)
- GI50 [27]: 10.9 µM (inactive)
- GI50 [28]: > 100 µM (inactive)
- GI50 [29]: > 100 µM (inactive)
- GI50 [30]: > 100 µM (inactive)
- GI50 [31]: > 100 µM (inactive)
- GI50 [32]: > 100 µM (inactive)
- GI50 [33]: > 100 µM (inactive)
- GI50 [34]: > 100 µM (inactive)
- GI50 [35]: > 100 µM (inactive)
- GI50 [36]: > 100 µM (inactive)
- GI50 [37]: > 100 µM (inactive)
- GI50 [38]: > 100 µM (inactive)
- GI50 [39]: > 100 µM (inactive)
- GI50 [40]: > 100 µM (inactive)
- GI50 [41]: > 100 µM (inactive)
- GI50 [42]: > 100 µM (inactive)
- GI50 [43]: > 100 µM (inactive)
- GI50 [44]: > 100 µM (inactive)
- GI50 [45]: > 100 µM (inactive)
- GI50 [46]: > 100 µM (inactive)
- GI50 [47]: > 100 µM (inactive)
- GI50 [48]: > 100 µM (inactive)
- GI50 [49]: > 100 µM (inactive)
- GI50 [50]: > 100 µM (inactive)
- GI50 [51]: > 100 µM (inactive)
- GI50 [52]: > 100 µM (inactive)
- GI50 [53]: > 100 µM (inactive)
- GI50 [54]: > 100 µM (inactive)
- GI50 [55]: > 100 µM (inactive)
- GI50 [56]: > 100 µM (inactive)

SMILES: C=C(C)CNCCN
- GI50 [1]: > 100 µM (inactive)
- GI50 [2]: > 100 µM (inactive)
- GI50 [3]: > 100 µM (inactive)
- GI50 [57]: > 100 µM (inactive)
- GI50 [4]: > 100 µM (inactive)
- GI50 [5]: > 100 µM
- GI50 [6]: > 100 µM (inactive)
- GI50 [7]: > 100 µM (inactive)
- GI50 [8]: > 100 µM (inactive)
- GI50 [9]: > 100 µM (inactive)
- GI50 [10]: > 100 µM (inactive)
- GI50 [11]: > 100 µM (inactive)
- GI50 [12]: > 100 µM (inactive)
- GI50 [14]: > 100 µM (inactive)
- GI50 [15]: > 100 µM (inactive)
- GI50 [58]: > 100 µM (inactive)
- GI50 [16]: > 100 µM (inactive)
- GI50 [17]: > 100 µM (inactive)
- GI50 [18]: > 100 µM (inactive)
- GI50 [20]: > 100 µM (inactive)
- GI50 [21]: > 100 µM (inactive)
- GI50 [22]: > 100 µM (inactive)
- GI50 [59]: > 100 µM (inactive)
- GI50 [24]: > 100 µM (inactive)
- GI50 [25]: > 100 µM (inactive)
- GI50 [26]: > 100 µM (inactive)
- GI50 [27]: > 100 µM (inactive)
- GI50 [28]: > 100 µM (inactive)
- GI50 [29]: > 100 µM (inactive)
- GI50 [30]: > 100 µM (inactive)
- GI50 [32]: > 100 µM (inactive)
- GI50 [33]: > 100 µM (inactive)
- GI50 [34]: > 100 µM (inactive)
- GI50 [36]: > 100 µM (inactive)
- GI50 [37]: > 100 µM (inactive)
- GI50 [38]: > 100 µM (inactive)
- GI50 [39]: > 100 µM (inactive)
- GI50 [40]: > 100 µM (inactive)
- GI50 [41]: > 100 µM (inactive)
- GI50 [43]: > 100 µM (inactive)
- GI50 [44]: > 100 µM (inactive)
- GI50 [45]: > 100 µM (inactive)
- GI50 [46]: > 100 µM (inactive)
- GI50 [47]: > 100 µM (inactive)
- GI50 [48]: > 100 µM (inactive)
- GI50 [49]: > 100 µM (inactive)
- GI50 [50]: > 100 µM (inactive)
- GI50 [51]: > 100 µM (inactive)
- GI50 [53]: > 100 µM (inactive)
- GI50 [54]: > 100 µM (inactive)
- GI50 [55]: > 100 µM (inactive)
- GI50 [56]: > 100 µM (inactive)
